# Measurements as given in PubChem BioAssay AID290 (DTP/NCI, 2004).
# Inconclusive results are not listed.
# System: mice, P1798 lymphosarcoma sc, survival or tumor weight T/C
# Assay: NCI In Vivo Anticancer Drug Screen. Data for tumor model P1798 Lymphosarcoma (subcutaneous) in unknown mice
# Description: The antitumor activity of compounds was measured in mice bearing transplantable tumors. Survival or tumor size were measured and the results are expressed as the measurement made in the treated group (T) divided by the measurement made in the vehicle treated control group (C). The tumor model used in this assay is P1798 Lymphosarcoma (subcutaneous) in unknown mice
# [1] = endpoint: mean tumor weight, dose: 12.5 mg/kg/injection, schedule: Q01DX010 (ip), vehicle: carboxymethylcellulose (CMC), higher = larger tumour
# [2] = endpoint: mean tumor weight, dose: 25.0 mg/kg/injection, schedule: Q01DX010 (ip), vehicle: carboxymethylcellulose (CMC), higher = larger tumour
smiles,measurement,setting,value
CCCCNc1ncnc2c1cnn2C,T/C,"endpoint: mean tumor weight, dose: 6.25 mg/kg/injection, schedule: Q01DX010 (ip), vehicle: carboxymethylcellulose (CMC), higher = larger tumour",63 % of control
same,T/C,[1],97 % of control
same,T/C,[2],57 % of control
C[C@]12C=CC(=O)C=C1CC[C@@H]1[C@@H]2[C@@H](O)C[C@@]2(C)[C@H]1CC[C@]2(O)C(=O)CO,T/C,"endpoint: mean tumor weight, dose: 31.3 mg/kg/injection, schedule: Q01DX010 (sc), vehicle: steriod suspending solution, higher = larger tumour",22 % of control
same,T/C,"endpoint: mean tumor weight, dose: 62.5 mg/kg/injection, schedule: Q01DX010 (sc), vehicle: steriod suspending solution, higher = larger tumour",8 % of control
N[C@@H](Cc1ccc(N(CCCl)CCCl)cc1)C(=O)O,T/C,"endpoint: mean tumor weight, dose: 1.25 mg/kg/injection, schedule: Q01DX010 (ip), vehicle: saline, higher = larger tumour",49 % of control
same,T/C,"endpoint: mean tumor weight, dose: 2.5 mg/kg/injection, schedule: Q01DX010 (ip), vehicle: saline, higher = larger tumour",29 % of control
same,T/C,"endpoint: mean tumor weight, dose: 4.0 mg/kg/injection, schedule: Q01DX011 (ip), vehicle: carboxymethylcellulose (CMC), higher = larger tumour",13 % of control
same,T/C,"endpoint: mean tumor weight, dose: 5.0 mg/kg/injection, schedule: Q01DX010 (ip), vehicle: saline, higher = larger tumour",16 % of control
same,T/C,"endpoint: median survival time, dose: 0.75 mg/kg/injection, schedule: Q01DX010 (sc), vehicle: saline, higher = longer survival",112 % of control
same,T/C,"endpoint: median survival time, dose: 1.5 mg/kg/injection, schedule: Q01DX010 (sc), vehicle: saline, higher = longer survival",104 % of control
same,T/C,"endpoint: median survival time, dose: 3.0 mg/kg/injection, schedule: Q01DX010 (sc), vehicle: saline, higher = longer survival",75 % of control
same,T/C,"endpoint: median survival time, dose: 6.0 mg/kg/injection, schedule: Q01DX010 (sc), vehicle: saline, higher = longer survival",52 % of control
same,T/C,"endpoint: median survival time, dose: 12.0 mg/kg/injection, schedule: Q01DX010 (sc), vehicle: saline, higher = longer survival",26 % of control
CCC(=O)O[C@H]1CC[C@H]2[C@@H]3CCC4=CC(=O)CC[C@]4(C)[C@H]3CC[C@]12C,T/C,"endpoint: mean tumor weight, dose: 150.0 mg/kg/injection, schedule: Q01DX010 (sc), vehicle: steriod suspending solution, higher = larger tumour",108 % of control
same,T/C,"endpoint: mean tumor weight, dose: 300.0 mg/kg/injection, schedule: Q01DX010 (sc), vehicle: steriod suspending solution, higher = larger tumour",116 % of control
same,T/C,"endpoint: mean tumor weight, dose: 600.0 mg/kg/injection, schedule: Q01DX010 (sc), vehicle: steriod suspending solution, higher = larger tumour",104 % of control
COc1ccc(-c2c(CC(=O)O)c3cc(OC)ccc3n2Cc2ccc(Cl)cc2)cc1,T/C,"endpoint: mean tumor weight, dose: 125.0 mg/kg/injection, schedule: Q01DX010 (ip), vehicle: saline, higher = larger tumour",105 % of control
same,T/C,"endpoint: mean tumor weight, dose: 250.0 mg/kg/injection, schedule: Q01DX010 (ip), vehicle: saline, higher = larger tumour",108 % of control
same,T/C,"endpoint: mean tumor weight, dose: 500.0 mg/kg/injection, schedule: Q01DX010 (ip), vehicle: saline, higher = larger tumour",112 % of control
same,T/C,"endpoint: mean tumor weight, dose: 1000.0 mg/kg/injection, schedule: Q01DX010 (ip), vehicle: saline, higher = larger tumour",110 % of control
O=c1[nH]c2cc(Cl)c(Cl)cc2o1,T/C,[1],78 % of control
same,T/C,[2],76 % of control
same,T/C,"endpoint: mean tumor weight, dose: 50.0 mg/kg/injection, schedule: Q01DX010 (ip), vehicle: carboxymethylcellulose (CMC), higher = larger tumour",117 % of control
same,T/C,"endpoint: mean tumor weight, dose: 100.0 mg/kg/injection, schedule: Q01DX010 (ip), vehicle: carboxymethylcellulose (CMC), higher = larger tumour",61 % of control
N=C(N)SCc1c2ccccc2c(CSC(=N)N)c2ccccc12,T/C,"endpoint: mean tumor weight, dose: 2.5 mg/kg/injection, schedule: Q01DX011 (ip), vehicle: carboxymethylcellulose (CMC), higher = larger tumour",85 % of control
same,T/C,"endpoint: mean tumor weight, dose: 5.0 mg/kg/injection, schedule: Q01DX011 (ip), vehicle: carboxymethylcellulose (CMC), higher = larger tumour",99 % of control
same,T/C,"endpoint: mean tumor weight, dose: 10.0 mg/kg/injection, schedule: Q01DX011 (ip), vehicle: carboxymethylcellulose (CMC), higher = larger tumour",50 % of control
same,T/C,"endpoint: mean tumor weight, dose: 20.0 mg/kg/injection, schedule: Q01DX011 (ip), vehicle: carboxymethylcellulose (CMC), higher = larger tumour",40 % of control
COc1cc2c(c(OC)c1OC)-c1ccc(OC)c(=O)cc1[C@@H](NC(C)=O)CC2,T/C,"endpoint: mean tumor weight, dose: 0.12 mg/kg/injection, schedule: Q01DX010 (ip), vehicle: saline, higher = larger tumour",50 % of control
same,T/C,"endpoint: mean tumor weight, dose: 0.25 mg/kg/injection, schedule: Q01DX010 (ip), vehicle: saline, higher = larger tumour",59 % of control
same,T/C,"endpoint: mean tumor weight, dose: 0.5 mg/kg/injection, schedule: Q01DX010 (ip), vehicle: saline, higher = larger tumour",5 % of control
